Results taken from ChEMBL document CHEMBL4364246, “Synthesis and biological evaluation of 5-aminoethyl benzophenanthridone derivatives as DNA topoisomerase IB inhibitors” (Eur J Med Chem, 2019).

Assays:
HOP-92 = experiment: Growth inhibition of human HOP92 cells incubated for 48 hrs by sulforhodamine B assay; type: functional; details: HOP-92, 48 h
SNB-75 = experiment: Growth inhibition of human SNB75 cells incubated for 48 hrs by sulforhodamine B assay; type: functional; details: SNB-75, 48 h
LOX IMVI = experiment: Growth inhibition of human LOXIMVI cells incubated for 48 hrs by sulforhodamine B assay; type: functional
SK-MEL-2 = experiment: Growth inhibition of human SK-MEL-2 cells incubated for 48 hrs by sulforhodamine B assay; type: functional; details: SK-MEL-2, 48 h
HOP-62 = experiment: Growth inhibition of human HOP62 cells incubated for 48 hrs by sulforhodamine B assay; type: functional; details: HOP-62, 48 h
NCI-H226 = experiment: Growth inhibition of human NCI-H226 cells incubated for 48 hrs by sulforhodamine B assay; type: functional; details: NCI-H226, 48 h
A549 [1] = experiment: Growth inhibition of human A549/ATCC cells incubated for 48 hrs by sulforhodamine B assay; type: functional; details: A549, 48 h
NCI-H460 = experiment: Growth inhibition of human NCI-H460 cells incubated for 48 hrs by sulforhodamine B assay; type: functional; details: NCI-H460, 48 h
ACHN = experiment: Growth inhibition of human ACHN cells incubated for 48 hrs by sulforhodamine B assay; type: functional
OVCAR-5 = experiment: Growth inhibition of human OVCAR5 cells incubated for 48 hrs by sulforhodamine B assay; type: functional; details: OVCAR-5, 48 h
T47D = experiment: Growth inhibition of human T47D cells incubated for 48 hrs by sulforhodamine B assay; type: functional
786-0 = experiment: Growth inhibition of human 786-0 cells incubated for 48 hrs by sulforhodamine B assay; type: functional; details: 786-0, 48 h
MCF7 [2] = experiment: Growth inhibition of human MCF7 cells incubated for 48 hrs by sulforhodamine B assay; type: functional; details: MCF7, 48 h
UO-31 = experiment: Growth inhibition of human UO31 cells incubated for 48 hrs by sulforhodamine B assay; type: functional; details: UO-31, 48 h
CCRF-CEM = experiment: Growth inhibition of human CCRF-CEM cells incubated for 48 hrs by sulforhodamine B assay; type: functional
CAKI-1 = experiment: Growth inhibition of human Caki1 cells incubated for 48 hrs by sulforhodamine B assay; type: functional; details: CAKI-1, 48 h
MDA-MB-468 = experiment: Growth inhibition of human MDA-MB-468 cells incubated for 48 hrs by sulforhodamine B assay; type: functional; details: MDA-MB-468, 48 h
HCT-116 [3] = experiment: Growth inhibition of human HCT116 cells incubated for 48 hrs by sulforhodamine B assay; type: functional; details: HCT-116, 48 h
NCI/ADR-RES = experiment: Growth inhibition of human NCI/ADR-RES cells incubated for 48 hrs by sulforhodamine B assay; type: functional
DU-145 = experiment: Growth inhibition of human DU145 cells incubated for 48 hrs by sulforhodamine B assay; type: functional; details: DU-145, 48 h
NCI-H522 = experiment: Growth inhibition of human NCI-H522 cells incubated for 48 hrs by sulforhodamine B assay; type: functional; details: NCI-H522, 48 h
IGROV-1 = experiment: Growth inhibition of human IGROV1 cells incubated for 48 hrs by sulforhodamine B assay; type: functional; details: IGROV-1, 48 h
HCT-116 [4] = experiment: cells; details: Homo sapiens, HCT-116, 72 h
MCF7 [5] = experiment: cells; details: Homo sapiens, MCF7, 72 h
KM12 = experiment: Growth inhibition of human KM12 cells incubated for 48 hrs by sulforhodamine B assay; type: functional; details: KM12, 48 h
A498 = experiment: Growth inhibition of human A498 cells incubated for 48 hrs by sulforhodamine B assay; type: functional; details: A498, 48 h
[6] = target: T1, DNA topoisomerase 1 (Homo sapiens) (UniProt P11387); experiment: Inhibition of recombinant TOP1 (unknown origin) using 3'-[32P]-labeled 117 bp DNA oligonucleotide assessed as […] TOP1-mediated DNA cleavage incubated for 20 mins by PAGE analysis relative to 1 uM CPT
T1 sequence (whole entry): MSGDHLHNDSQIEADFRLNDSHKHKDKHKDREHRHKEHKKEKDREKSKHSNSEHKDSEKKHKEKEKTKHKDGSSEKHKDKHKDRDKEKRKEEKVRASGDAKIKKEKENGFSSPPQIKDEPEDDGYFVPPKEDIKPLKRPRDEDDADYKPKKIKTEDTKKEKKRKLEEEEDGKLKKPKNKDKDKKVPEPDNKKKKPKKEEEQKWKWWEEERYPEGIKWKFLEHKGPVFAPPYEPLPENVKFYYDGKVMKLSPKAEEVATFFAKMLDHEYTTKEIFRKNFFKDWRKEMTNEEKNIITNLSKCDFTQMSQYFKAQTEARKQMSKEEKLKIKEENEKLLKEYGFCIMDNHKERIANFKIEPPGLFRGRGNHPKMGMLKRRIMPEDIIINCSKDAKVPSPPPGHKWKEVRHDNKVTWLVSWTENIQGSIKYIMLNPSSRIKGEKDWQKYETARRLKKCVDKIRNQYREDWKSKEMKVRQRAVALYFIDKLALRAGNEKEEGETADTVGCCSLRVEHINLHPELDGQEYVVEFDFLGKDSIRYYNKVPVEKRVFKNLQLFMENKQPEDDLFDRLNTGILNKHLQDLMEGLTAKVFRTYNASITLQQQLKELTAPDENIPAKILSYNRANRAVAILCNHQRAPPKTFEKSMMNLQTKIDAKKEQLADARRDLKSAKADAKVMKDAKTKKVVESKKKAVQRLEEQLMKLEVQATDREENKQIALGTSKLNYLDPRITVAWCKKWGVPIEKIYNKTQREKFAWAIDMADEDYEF

COLO 205 = experiment: Growth inhibition of human COLO205 cells incubated for 48 hrs by sulforhodamine B assay; type: functional; details: COLO 205, 48 h
A549 [7] = experiment: cells; details: Homo sapiens, A549, 72 h
SK-MEL-5 = experiment: Growth inhibition of human SK-MEL-5 cells incubated for 48 hrs by sulforhodamine B assay; type: functional; details: SK-MEL-5, 48 h
MOLT-4 = experiment: Growth inhibition of human MOLT4 cells incubated for 48 hrs by sulforhodamine B assay; type: functional; details: MOLT-4, 48 h
[8] = test system: Panel NCI-60 (60 carcinoma cell lines); experiment: Growth inhibition of human NCI60 incubated for 48 hrs by sulforhodamine B assay; type: functional
OVCAR-4 = experiment: Growth inhibition of human OVCAR4 cells incubated for 48 hrs by sulforhodamine B assay; type: functional; details: OVCAR-4, 48 h
BT-549 = experiment: Growth inhibition of human BT549 cells incubated for 48 hrs by sulforhodamine B assay; type: functional; details: BT-549, 48 h
Hs-578T = experiment: Growth inhibition of human Hs 578T cells incubated for 48 hrs by sulforhodamine B assay; type: functional
Malme-3M = experiment: Growth inhibition of human MALME-3M cells incubated for 48 hrs by sulforhodamine B assay; type: functional

Compound | GI50 (HOP-92) [nM] | GI50 (SNB-75) [nM] | GI50 (LOX IMVI) [nM] | GI50 (SK-MEL-2) [nM] | GI50 (HOP-62) [nM] | GI50 (NCI-H226) [nM] | GI50 (A549 [1]) [nM] | GI50 (NCI-H460) [nM] | GI50 (ACHN) [nM] | GI50 (OVCAR-5) [nM] | GI50 (T47D) [nM] | GI50 (786-0) [nM] | GI50 (MCF7 [2]) [nM] | GI50 (UO-31) [nM] | GI50 (CCRF-CEM) [nM] | GI50 (CAKI-1) [nM] | GI50 (MDA-MB-468) [nM] | GI50 (HCT-116 [3]) [nM] | GI50 (NCI/ADR-RES) [nM] | GI50 (DU-145) [nM] | further results
COc1cc2c(=O)n(CCN)c3c4cc5c(cc4ccc3c2cc1OC)OCO5 | 3560 | 596 | 246 | 3010 | 399 | 1340 | 584 | 230 | 366 | 1200 | 368 | 464 | 164 | 350 | 150 | 295 | 157 | 285 | 1010 | 527 | GI50 (NCI-H522): 87.5 nM; GI50 (IGROV-1): 500 nM; GI50 (HCT-116 [4]): 290 nM; GI50 (MCF7 [5]): 100 nM; GI50 (KM12): 1100 nM; GI50 (A498): 1230 nM; inhibition [6]: 50 to 75%; GI50 (COLO 205): 290 nM; GI50 (A549 [7]): 980 nM; GI50 (SK-MEL-5): 614 nM; GI50 (MOLT-4): 63.3 nM; GI50 [8]: 525 nM; GI50 (OVCAR-4): 782 nM; GI50 (BT-549): 918 nM; GI50 (Hs-578T): 1960 nM; GI50 (Malme-3M): 613 nM
CNCCn1c(=O)c2cc(OC)c(OC)cc2c2ccc3cc4c(cc3c21)OCO4 | 184 | 88.5 | 38.9 | 393 | 43.9 | 172 | 94.8 | 21.2 | 85.6 | 183 | 75.7 | 70.3 | 29.2 | 104 | 20.1 | 64.4 | 59.9 | 51.5 | 165 | 130 | GI50 (NCI-H522): 27.4 nM; GI50 (IGROV-1): 145 nM; GI50 (HCT-116 [4]): 36 nM; GI50 (MCF7 [5]): 90 nM; GI50 (KM12): 238 nM; GI50 (A498): 127 nM; inhibition [6]: 75 to 95%; GI50 (COLO 205): 60.5 nM; GI50 (A549 [7]): 970 nM; GI50 (SK-MEL-5): 90.9 nM; GI50 (MOLT-4): 23.4 nM; GI50 [8]: 97.7 nM; GI50 (OVCAR-4): 154 nM; GI50 (BT-549): 202 nM; GI50 (Hs-578T): 904 nM; GI50 (Malme-3M): 174 nM
